Literature values in patent US9072778B2, “Treatment regimen for N-MYC, c-MYC, and L-MYC amplified and overexpressed tumors” (UNIVERSITY OF HAWAII, priority 2005, dated 2015).

Settings: SAM486A, Phase II, relapsed or refractory non-Hodgkin's lymphoma; cited from earlier work

SMILES: N=C(N)c1cccc2c1CC/C2=N\N=C(N)N [SAM486A, 4-amidinoindan-1-one 2′-amidinohydrazone]
- most frequent side effects: nausea, vomiting, diarrhea, asthenia, abdominal pain, and flushing
